Data on 3 molecules can be found in EP1069130A1, “Moenomycin A Derivatives, their preparation, and use as antibacterial products” (HOECHST MARION ROUSSEL, priority 1999, dated 2001).

In this test the test system is S. pyogenes A561. Put plainly: Method of dilutions in liquid medium (minimum inhibiting concentration). The format is cell-based. To be noted: liquid nutritive medium, incubation twenty-four hours at 37° C, growth inhibition read by transillumination; for MIC: Streptococcus pyogenes, 24 h, read-out: minimum inhibiting concentrations (M.I.C.). As for the experimental part: Method of dilutions in liquid medium.
A series of tubes were prepared in which the same amount of sterile nutritive medium was distributed and increasing amounts of the product to be studied was distributed in each tube. Then, each tube was seeded with a bacterial strain and after incubationg for twenty-four hours in an oven at 37° C, the inhibition of growth was determined by transillumination which allowed the minimum inhibiting concentrations (M.I.C.) to be evaluated.
Products were tested on many strains inclusing : • S. aureus SG511 • S. aureus SG511 (+10 % serum) • S. aureus Exp54146 • S. pyogenes A561 • E. faecium M78L

Consider `CC(=O)NC1C(OC2C(COC3OC(CO)C(O)C(O)C3O)OC(OC3C(OP(=O)(O)OCC(OCCNCC=C(C)CCCC(C)CCCC(C)CCCC(C)C)C(=O)O)OC(C(N)=O)C(C)(O)C3OC(N)=O)C(NC(C)=O)C2O)OC(C)C(OC2OC(C(N)=O)C(O)C(O)C2O)C1O` [Example 4, 3-carbamate 1-[(2R)-2-carboxy-2-[[(3,7,11,15-tetramethyl-2-hexadecenyl)amino]ethoxy]ethyl hydrogen phosphate] 0-β-D-glucopyranosyl-(1→6)-O-[O-(β-D-galactopyranuronamidosyl)-(1→4)-2-(acetylamino)-2,6-dideoxy-β-D-glucopyranosyl-(1→4]-O-2-(acetylamino)-2-deoxy-.beat.-D-glucopyranosyl-(1→2)-4-C-methyl-α-D-Glucopyranuronamide], for which the “minimum inhibiting concentrations (M.I.C.)” value is given as ≤ 1,2 microgramme/ml. As for `CCCCCCCCCCCCc1ccc(NCCO[C@H](COP(=O)(O)O[C@H]2O[C@H](C(N)=O)[C@@](C)(O)[C@H](OC(N)=O)[C@H]2O[C@@H]2O[C@H](CO[C@@H]3O[C@H](CO)[C@@H](O)[C@H](O)[C@H]3O)[C@@H](O[C@@H]3O[C@H](C)[C@@H](O[C@@H]4O[C@H](C(N)=O)[C@H](O)[C@H](O)[C@H]4O)[C@H](O)[C@H]3NC(C)=O)[C@H](O)[C@H]2NC(C)=O)C(=O)O)cc1` [Example 5, 3-carbamate 1-[(2R)-2-carboxy-2-[[(4-dodecylphenyl))amino]ethoxy]ethyl hydrogen phosphate] 0-β-D-glucopyranosyl-(1→6)-O-[O-(β-D-galactopyranuronamidosyi)-(1→4)-2-(acetylamino)-2,6-dideoxy-β-D-glucopyranosyl-(1→4]-O-2-(acetylamino)-2-deoxy-.beat.-D-glucopyranosyl-(1→2)-4-C-methyl-α-D-Glucopyranuronamide], the MIC was not above 1.2 µg/mL. In the case of `C=CC(CCCCCCCCC)C(O)CO[C@H](COP(=O)(O)O[C@H]1O[C@H](C(N)=O)[C@@](C)(O)[C@H](OC(N)=O)[C@H]1O[C@@H]1O[C@H](CO[C@@H]2O[C@H](CO)[C@@H](O)[C@H](O)[C@H]2O)[C@@H](O[C@@H]2O[C@H](C)[C@@H](O[C@@H]3O[C@H](C(N)=O)[C@H](O)[C@H](O)[C@H]3O)[C@H](O)[C@H]2NC(C)=O)[C@H](O)[C@H]1NC(C)=O)C(=O)O` (stereo partly drawn) [Example 6], the MIC was not above 1.2 µg/mL.
